Data taken from patent US20050282755A1, “Compositions having antimicrobial activity and uses thereof” (priority 2004, published 2005).
≈ marks a conversion by molar mass, not a printed value.

How the values were obtained:
[1] = tested on: E. coli K12 55099 (protease neg.); conditions: 3 log or greater reduction in bacterial growth over 16 hours
human red blood cells = format: cell-based; conditions: red cells of human, 100 Micromolar
Procedure: Hemoglobin-release assays with human red blood cells (RBC) were performed to determine the hemolytic activity of granulysin peptides. Human RBCs (San Diego Blood Bank, San Diego, Calif.) were washed three times in PBS buffer (8 mM Na2HPO4, 1.5 mM KH2PO4, 140 mM NaCl and 2.7 mM KCl, pH 7.4), resuspended in PBS to the concentration of 5% (v/v). The RBC were then exposed to different peptide compositions at various concentrations (100-6.25 micromolar) and incubated at 37° C. for 60 minutes in a total volume of 120 microliters. Every experiment included a negative control without peptide and maximum control treated with 5% TX-100 for complete hemoglobin release. Samples were centrifuged for 1 minute at 13,000 g to remove debris and intact cells. The hemoglobin-containing supernatant was removed and transferred to a microwell plate. Hemoglobin release was quantified at A540 using a Versamax plate reader (Molecular Devices). The degree of hemolysis is expressed as percentage of hemolysis compared to the […], using the following formula: % hemolysis=(sample−neg. control)/(max. control−neg. control)×100.

S. aureus (Rosenbach) = experiment: Broth microdilution assay for MIC (20% TSB, 50 mM Na2CO3, 1 mM MgCl2), Table 4A; format: cell-based, Staphylococcus aureus; conditions: 3 log or greater reduction in bacterial growth over 16 hours
Procedure: (§1) S. dublin (Lane), S. aureus (Rosenbach), P. acnes, ATCC 6919, E. coli K12 TOP10, and E. coli K12 55099 (protease neg.) bacterial strains were tested in the microbial inhibition assays described hereafter. The S. dublin (Lane), and S. aureus (Rosenbach) strains are available from ATCC (Staphylococcus aureus subsp. aureus Rosenbach (Number: 13150) and Salmonella choleraesuis serotype dublin (Number: 39184)). The strain of P. acnes was purchased from ATCC (strain #6919) (Manassas, Va.). The E. coli K12 strains TOP 10 and 55099 were purchased from Invitrogen (Carlsbad, Calif.) and ATCC respectively. HeLa cells were purchased from ATCC (CCL2). Tryptic soy broth (TSB), Brucella broth, reinforced Clostridial broth and agar were purchased from Becton & Dickinson (distributed by VWR, West Chester, Pa.). All plastic consumables were purchased from VWR (West Chester, Pa.). […]
(§2) The minimum inhibitory concentration (MIC) of peptide compositions for S. aureus, S. dublin and E. coli was determined in a broth microdilution assay. […] The MIC for each peptide for each microorganism was determined by three methods. The growth of bacteria was directly determined by measuring the absorption at 600 nm using a Versamax microplate reader (Molecular Devices). […] After incubation for 16 hours at 37° C. bacterial growth was evaluated and documented (Alpha Innotech gel documentation system).

S. dublin (Lane) = experiment: Broth microdilution assay for MIC, Table 4A; format: cell-based, Salmonella dublin; conditions: 3 log or greater reduction in bacterial growth over 16 hours
Procedure: as §1, §2

[2] = tested on: indigenous bacteria in human sebum; experiment: Human sebum assay, bactericidal activity; format: cell-based; conditions: 250 Micromolar peptide, 150 minutes at 37° C; none: 8500000
Procedure: Sebum was harvested from healthy human volunteers using Biore® deep cleansing pore strips. The seburn plugs were collected in a microtube with a tweezer. […] The seburn was resusupended in 1% TSB, 10 mM Na2HPO4 into fine particulate suspension. The assay was performed in a total volume of 50 microliters. […] The samples were incubated for 150 minutes at 37° C. To determine the number of viable bacteria, a serial dilution was prepared (10 fold dilutions to 1/100000). […] After incubation for 72 hours bacterial growth was documented (Alpha Innotech documentation system). The number of CFU/milliliter was determined by counting bacteria colonies. The efficacy of a peptide is indicated by the reduction of CFU/milliliter compared to the untreated control.

Jurkat cells = format: cell-based; conditions: 16 h
Procedure: Toxicity of peptide compositions for mammalian cells was determined by using a metabolic viability assay. For this assay 4×10^5 HeLa cells were seeded per well into a microwell plate (50 microliters volume). Jurkat cells also were utilized in separate experiments. The cells were incubated for 16 hours at 37° C. under mammalian cell culture conditions. Two fold serial dilutions for each peptide were prepared and added to the cells (final volume 100 microliters) and incubated for 16 hours at 37° C. For each dilution series control wells containing cells without peptide were included. The metabolic activity and viability of the cells were determined by using a commercially available assay (CellTiter96 assay, Promega Corp.). According to manufacturer's protocol 20 microliters of CellTiter reagent was added to each well and incubated at 37° C. for 1-4 hours. The CellTiter assay is a commercial version of the MTT assay, which measures the conversion of a tetrazolium […] into a colored formazan salt in metabolically active cells. The formation of the formazan product can be measured at 470 nm and is generally accepted as a measure of cellular viability. The cells were incubated at 37° C. and monitored for color development. The conversion of CellTiter reagent was measured at 470 nm using a Versamax plate reader (Molecular Devices). The viability of peptide treated cells is expressed as IC50 (i.e., concentration that leads to a 50% reduction of viability relative to the untreated control). Table 7A reports IC50 values for HeLa cells cultured in OptiMEM or 10% FBS when contacted with peptide compositions from Table 3, and Table 7B reports IC50 values for HeLa cells or Jurkat cells contacted with peptide compositions from Table 3.

E. coli K12 TOP10 = conditions: 3 log or greater reduction in bacterial growth over 16 hours

## CSCC[C@@H](NC(=O)[C@@H](Cc1ccccc1)NC(=O)[C@@H](CC(N)=O)NC(=O)[C@@H](CCCNC(=N)N)NC(=O)[C@@H](CO)NC(=O)[C@@H](Cc1c[nH]c2ccccc12)NC(=O)[C@@H](CC(=O)O)NC(=O)[C@@H](CCCNC(=N)N)NC(=O)[C@@H](Cc1c[nH]c2ccccc12)NC(=O)[C@@H](CCCNC(=N)N)NC(=O)[C@@H](CO)NC(=O)[C@@H](CCCNC(=N)N)NC(=O)CNC(=O)[C@H](NC(=O)[C@@H](CCCNC(=N)N)NC(=O)[C@@H](CO)NC(=O)[C@H](NC(=O)[C@@H](CCCNC(=N)N)NC(=O)[C@H](NC(C)=O)[C@H](C)O)C(C)C)[C@H](C)O)C(=O)N[C@H](CCCNC(=N)N)C(=O)N[C@H](C)C(=O)N[C@H](C)C(N)=O [Peptide 30, Ac-trvsrtgrsrwrdwsrnfmraa-NH2]
[1]
  Minimum inhibitory concentration (MIC) E. coli 55099: 2 µM (≈ 5.59 µg/mL)
Human red blood cells
  Hemolytic effect on human red blood cells: 0%
S. aureus (Rosenbach)
  Minimum inhibitory concentration (MIC) S. aureus: 8 µM (≈ 22.4 µg/mL)
S. dublin (Lane)
  Minimum inhibitory concentration (MIC) S. dublin: 4 µM (≈ 11.2 µg/mL)
[2]
  Bactericidal activity for indigenous bacteria in human sebum, cfu/ml: 1000 cfu/ml
Jurkat cells
  IC50: > 100 µM
E. coli K12 TOP10
  Minimum inhibitory concentration (MIC) E. coli Top10: 4 µM (≈ 11.2 µg/mL)
